In brackets after ≈: the same amount, converted by molar mass. Positions of bridges follow the written chain, without caps; N, C: chain ends. Non-standard residues stand in square brackets, D forms with d. Residues, ends and D or L forms follow the SMILES beside them. ξ: configuration not given here. *: point of attachment. Octanoyl(7-Me) = CC(C)CCCCCC(=O)*; Hexanoyl(4ξ-Me) = CCC(C)CCC(=O)*; dOrn = NCCC[C@@H](N)C(=O)O; Orn = NCCC[C@H](N)C(=O)O
Each molecule was assayed on Escherichia coli ATCC 25922. Details: ATCC 25922.
Assay type: cell-based
Protocol: Minimum inhibitory concentration (MIC) was determined by broth microdilution according to CLSI guidelines. Blood agar plates were inoculated with glycerol stocks of Escherichia coli ATCC 25922, E. coli ATCC 25922 MCR-1, E. coli MCR-1 (clinical isolate from Utrecht Medical Center, NL), E. coli EQAS MCR-2 (clinical isolate from Wageningen University and Research, NL), Kiebsielia pneumoniae ATCC 11228, K. pneumoniae ATCC 13883, K. pneumonia 2048 (clinical isolate from Vrije Universiteit Amsterdam Medical Center, NL), K. pneumonia JS-123 (clinical isolate from Utrecht Medical Center, NL), Acinetobacter baumannii ATCC 17961, A. baumannil ATCC 17978, A. baumannii 2018-006 (clinical isolate from Rijksinstituut voor Volksgezondheid en Milieu, NL), A. baumannii MDR (clinical isolate from Vrije Universiteit Amsterdam Medical Center, NL), Pseudomonas aeruginosa ATCC 27853, P. aeruginosa PAO1, P. aeruginosa NRZ-03961 (Reference strain from Das Nationale Referenzzentrum für gramnegative Krankenhauserreger, DE), P. aeruginosa M-120 (clinical isolate from Leiden University Medical Center, NL) and Staphylococcus aureus USA300 (clinical isolate from Texas Children's Hospitalm, USA). E. coli 25922 MCR1 was grown on LB agar supplemented with kanamycin. The inoculated agar plates were then incubated for 16 hours at 37° C. Individually grown colonies were subsequently used to inoculate 3 mL aliquots of TSB that were then incubated at 37° C. with shaking at 220 rpm. In parallel, the compounds to be assessed were serially diluted with Mueller-Hinton broth (MHB) in polypropylene 96-well plates (50 μL in each well). Once the OD600 of the bacterial suspensions reached 0.5, the bacteria were diluted with MHB (final concentration 2×10^5 CFU mL^−1) and added to the microplates containing the test compounds (50 μL to each well, final volume: 100 μL). The well-plates were sealed with an adhesive membrane and after 16 hours of incubation at 37° C. with shaking at 220 rpm the wells were visually inspected for bacterial growth. MIC values were defined as the lowest concentration of the compound that prevented visible growth of bacteria.
With CC[C@H](C)[C@H](NC(=O)[C@@H](NC(=O)[C@H](Cc1c[nH]c2ccccc12)NC(=O)[C@@H](CCCN)NC(=O)CNC(=O)[C@H](CCCN)NC(=O)[C@@H](CCCN)NC(=O)[C@@H](Cc1c[nH]c2ccccc12)NC(=O)[C@@H](Cc1ccc(O)cc1)NC(=O)[C@@H](CO)NC(=O)CCCCCC(C)C)[C@@H](C)O)C(N)=O [ΔN11-G13, FA-sywoOGoWTI-CONH2] ({Octanoyl(7-Me)}-[dS][dY][dW][dOrn][Orn]G[dOrn]WTI-NH2) the “Minimum inhibitory concentration (MIC)” value was 4 µg/mL (≈ 2.87 µM).
In the case of CC[C@H](C)[C@H](NC(=O)[C@H](Cc1c[nH]c2ccccc12)NC(=O)[C@H](Cc1c[nH]c2ccccc12)NC(=O)[C@@H](CCCN)NC(=O)CNC(=O)[C@H](CCCN)NC(=O)[C@@H](CCCN)NC(=O)[C@@H](Cc1c[nH]c2ccccc12)NC(=O)[C@@H](Cc1ccc(O)cc1)NC(=O)[C@@H](CO)NC(=O)CCCCCC(C)C)C(=O)N[C@@H](CC(N)=O)C(=O)NCC(=O)NCC(N)=O [Trp9-CONH2] ({Octanoyl(7-Me)}-[dS][dY][dW][dOrn][Orn]G[dOrn]WWINGG-NH2), the “Minimum inhibitory concentration (MIC)” value is reported as 4 µg/mL (≈ 2.34 µM).
CC[C@H](C)[C@H](NC(=O)[C@H](C)NC(=O)[C@H](Cc1c[nH]c2ccccc12)NC(=O)[C@@H](CCCN)NC(=O)CNC(=O)[C@H](CCCN)NC(=O)[C@@H](CCCN)NC(=O)[C@@H](Cc1c[nH]c2ccccc12)NC(=O)[C@@H](Cc1ccc(O)cc1)NC(=O)[C@@H](CO)NC(=O)CCCCCC(C)C)C(=O)N[C@@H](CC(N)=O)C(=O)NCC(=O)NCC(N)=O [Ala9 (Thr→Ala), FA-sywoOGoWAINGG-CONH2] ({Octanoyl(7-Me)}-[dS][dY][dW][dOrn][Orn]G[dOrn]WAINGG-NH2) was tested, and the “Minimum inhibitory concentration (MIC)” value was 2 µg/mL (≈ 1.26 µM).
With CC(C)CCCCCC(=O)N[C@H](CO)C(=O)N[C@H](Cc1ccc(O)cc1)C(=O)N[C@H](Cc1c[nH]c2ccccc12)C(=O)N[C@H](CCCN)C(=O)N[C@@H](CCCN)C(=O)NCC(=O)N[C@H](CCCN)C(=O)N[C@@H](Cc1c[nH]c2ccccc12)C(=O)N[C@H](C(N)=O)[C@@H](C)O [ΔI10-G13, FA-sywoOGoWT-CONH2] ({Octanoyl(7-Me)}-[dS][dY][dW][dOrn][Orn]G[dOrn]WT-NH2) the “Minimum inhibitory concentration (MIC)” value was 16 µg/mL (≈ 12.5 µM).
In the case of CC(C)CCCCCC(=O)N[C@H](CO)C(=O)N[C@H](Cc1ccc(O)cc1)C(=O)N[C@H](Cc1c[nH]c2ccccc12)C(=O)N[C@H](CCCN)C(=O)N[C@@H](CCCN)C(=O)NCC(=O)N[C@H](CCCN)C(=O)N[C@@H](Cc1c[nH]c2ccccc12)C(N)=O [ΔT9-G13, FA-sywoOGoW-CONH2] ({Octanoyl(7-Me)}-[dS][dY][dW][dOrn][Orn]G[dOrn]W-NH2), the “Minimum inhibitory concentration (MIC)” value is reported as 16 µg/mL (≈ 13.6 µM).
With CC[C@H](C)[C@H](NC(=O)[C@@H](NC(=O)[C@H](Cc1c[nH]c2ccccc12)NC(=O)[C@@H](CCCN)NC(=O)[C@H](C)NC(=O)[C@H](CCCN)NC(=O)[C@@H](CCCN)NC(=O)[C@@H](Cc1c[nH]c2ccccc12)NC(=O)[C@@H](Cc1ccc(O)cc1)NC(=O)[C@@H](CO)NC(=O)CCCCCC(C)C)[C@@H](C)O)C(=O)N[C@@H](CC(N)=O)C(=O)NCC(=O)NCC(N)=O [Ala6 (Gly→Ala), FA-sywoOAoWTINGG-CONH2] ({Octanoyl(7-Me)}-[dS][dY][dW][dOrn][Orn]A[dOrn]WTINGG-NH2) the “Minimum inhibitory concentration (MIC)” value was 4 to 8 µg/mL.
In the case of CC[C@H](C)[C@H](NC(=O)[C@H](CO)NC(=O)[C@H](Cc1c[nH]c2ccccc12)NC(=O)[C@@H](CCCN)NC(=O)CNC(=O)[C@H](CCCN)NC(=O)[C@@H](CCCN)NC(=O)[C@@H](Cc1c[nH]c2ccccc12)NC(=O)[C@@H](Cc1ccc(O)cc1)NC(=O)[C@@H](CO)NC(=O)CCCCCC(C)C)C(=O)N[C@@H](CC(N)=O)C(N)=O [ΔG12-G13-Ser9-isoC9] ({Octanoyl(7-Me)}-[dS][dY][dW][dOrn][Orn]G[dOrn]WSIN-NH2), the “Minimum inhibitory concentration (MIC)” value is reported as 4 µg/mL (≈ 2.68 µM).
CC[C@H](C)[C@H](NC(=O)[C@@H](NC(=O)[C@H](Cc1c[nH]c2ccccc12)NC(=O)[C@@H](CCCN)NC(=O)CNC(=O)[C@H](CCCN)NC(=O)[C@@H](C)NC(=O)[C@@H](Cc1c[nH]c2ccccc12)NC(=O)[C@@H](Cc1ccc(O)cc1)NC(=O)[C@@H](CO)NC(=O)CCCCCC(C)C)[C@@H](C)O)C(=O)N[C@@H](CC(N)=O)C(=O)NCC(=O)NCC(N)=O [Ala4 (D-Orn→D-Ala), FA-sywaOGoWTINGG-CONH2] ({Octanoyl(7-Me)}-[dS][dY][dW][dA][Orn]G[dOrn]WTINGG-NH2) was tested, and the “Minimum inhibitory concentration (MIC)” value was 32 µg/mL (≈ 20.3 µM).
For CC[C@H](C)[C@@H]1NC(=O)[C@@H](NC(=O)[C@H](Cc2c[nH]c3ccccc23)NC(=O)[C@@H](CCCN)NC(=O)CNC(=O)[C@H](CCCN)NC(=O)[C@@H](CCCN)NC(=O)[C@@H](Cc2c[nH]c3ccccc23)NC(=O)[C@@H](Cc2ccc(O)cc2)NC(=O)[C@@H](CO)NC(=O)CCCCCC(C)C)[C@@H](C)OC(=O)CNC(=O)[C@@H](CO)NC(=O)CNC1=O [Compound R4] ({Octanoyl(7-Me)}-[dS][dY][dW][dOrn][Orn]G[dOrn]WTIG[dS]G; ester 9-C; N-terminus assumed), the “Minimum inhibitory concentration (MIC)” value was 2 to 4 µg/mL.
With CC[C@H](C)[C@H](NC(=O)[C@@H](NC(=O)[C@H](Cc1c[nH]c2ccccc12)NC(=O)[C@@H](CCCN)NC(=O)CNC(=O)[C@H](CCCN)NC(=O)[C@@H](CCCN)NC(=O)[C@@H](C)NC(=O)[C@@H](Cc1ccc(O)cc1)NC(=O)[C@@H](CO)NC(=O)CCCCCC(C)C)[C@@H](C)O)C(=O)N[C@@H](CC(N)=O)C(=O)NCC(=O)NCC(N)=O [Ala3 (D-Trp→D-Ala), FA-syaoOGoWTINGG-CONH2] ({Octanoyl(7-Me)}-[dS][dY][dA][dOrn][Orn]G[dOrn]WTINGG-NH2) the “Minimum inhibitory concentration (MIC)” value was 16 µg/mL (≈ 10.6 µM).
CC[C@H](C)[C@@H]1NC(=O)[C@@H](NC(=O)[C@H](Cc2c[nH]c3ccccc23)NC(=O)[C@@H](CCCN)NC(=O)CNC(=O)[C@H](CCCN)NC(=O)[C@@H](CCCN)NC(=O)[C@@H](Cc2c[nH]c3ccccc23)NC(=O)[C@@H](Cc2ccc(O)cc2)NC(=O)[C@@H](CO)NC(=O)CCCCCC(C)C)[C@@H](C)OC(=O)[C@H](C)NC(=O)[C@H](CO)NC(=O)CNC1=O [Compound R9] ({Octanoyl(7-Me)}-[dS][dY][dW][dOrn][Orn]G[dOrn]WTIGSA; ester 9-C; N-terminus assumed) was tested, and the “Minimum inhibitory concentration (MIC)” value was 1 to 2 µg/mL.
With CC[C@H](C)[C@H](NC(=O)[C@H](CCSC)NC(=O)[C@H](Cc1c[nH]c2ccccc12)NC(=O)[C@@H](CCCN)NC(=O)CNC(=O)[C@H](CCCN)NC(=O)[C@@H](CCCN)NC(=O)[C@@H](Cc1c[nH]c2ccccc12)NC(=O)[C@@H](Cc1ccc(O)cc1)NC(=O)[C@@H](CO)NC(=O)CCCCCC(C)C)C(=O)N[C@@H](CC(N)=O)C(=O)NCC(=O)NCC(N)=O [Met9-CONH2] ({Octanoyl(7-Me)}-[dS][dY][dW][dOrn][Orn]G[dOrn]WMINGG-NH2) the “Minimum inhibitory concentration (MIC)” value was 2 µg/mL (≈ 1.21 µM).
For CCC(C)CCC(=O)N[C@H](CO)C(=O)N[C@H](Cc1ccc(O)cc1)C(=O)N[C@H](Cc1c[nH]c2ccccc12)C(=O)N[C@H](CCCN)C(=O)N[C@@H](CCCN)C(=O)NCC(=O)N[C@H](CCCN)C(=O)N[C@@H](Cc1c[nH]c2ccccc12)C(=O)N[C@@H]1C(=O)N[C@@H]([C@@H](C)CC)C(=O)NCC(=O)N[C@H](CO)C(=O)N[C@@H](C)C(=O)O[C@@H]1C (stereo partly shown) [Compound R6] ({Hexanoyl(4ξ-Me)}-[dS][dY][dW][dOrn][Orn]G[dOrn]WTIG[dS]A; ester 9-C; N-terminus assumed), the “Minimum inhibitory concentration (MIC)” value was 1 µg/mL (≈ 0.639 µM).
